# Literature values in patent publication US5892063A (Hauser, Inc., priority 1997, dated 1999).
# Experiments:
# [1] = tested on: murine and human tumor cell lines; settings: cited from earlier work
# microtubule = settings: relative to paclitaxel; cited from earlier work
# [2] = tested on: murine and human xenografts; settings: cited from earlier work
# tumor models = settings: vs paclitaxel, cisplatin, cyclophosphamide, doxorubicin; same tumor models; cited from earlier work
# [3] = cited from earlier work
structure (smiles),measurement,setting,value
"CC(=O)O[C@@]12CO[C@@H]1C[C@H](O)[C@@]1(C)C(=O)[C@H](O)C3=C(C)[C@@H](OC(=O)[C@H](O)[C@@H](NC(=O)OC(C)(C)C)c4ccccc4)C[C@@](O)([C@@H](OC(=O)c4ccccc4)[C@H]21)C3(C)C [Docetaxel, docetaxel]",in vitro cytotoxicity,[1],impressive
same,potency as inhibitor of microtubule depolymerization vs paclitaxel,microtubule,twice as potent
same,in vivo preclinical activity,[2],impressive
same,cytotoxic activity vs other antineoplastic agents,tumor models,higher cytoxic activity than other antineoplastic agents
same,aqueous solubility,[3],low aqueous solubility
